Laboratory results: patent publication US20210300940A1 (Merck Patent GmbH, priority 2018, published 2021)
pIC50: −log10 of the molar value.

Experiments:
TLR7 = target: T1, TLR7 (Homo sapiens, UniProt Q9NYK1); test: HEK/293 TLR7 Cell Assay; type: cell-based; conditions: TLR7/NFKb HEK cells, R848 agonist 10 uM final concentration, Steady-Glo readout; read-out: TLR7 potency
T1 construct: expressed in transfected cells; host or cells: HEK/293 cells carrying TLR7 and an NF-kB luciferase reporter
T1 sequence (Q9NYK1 27-1049): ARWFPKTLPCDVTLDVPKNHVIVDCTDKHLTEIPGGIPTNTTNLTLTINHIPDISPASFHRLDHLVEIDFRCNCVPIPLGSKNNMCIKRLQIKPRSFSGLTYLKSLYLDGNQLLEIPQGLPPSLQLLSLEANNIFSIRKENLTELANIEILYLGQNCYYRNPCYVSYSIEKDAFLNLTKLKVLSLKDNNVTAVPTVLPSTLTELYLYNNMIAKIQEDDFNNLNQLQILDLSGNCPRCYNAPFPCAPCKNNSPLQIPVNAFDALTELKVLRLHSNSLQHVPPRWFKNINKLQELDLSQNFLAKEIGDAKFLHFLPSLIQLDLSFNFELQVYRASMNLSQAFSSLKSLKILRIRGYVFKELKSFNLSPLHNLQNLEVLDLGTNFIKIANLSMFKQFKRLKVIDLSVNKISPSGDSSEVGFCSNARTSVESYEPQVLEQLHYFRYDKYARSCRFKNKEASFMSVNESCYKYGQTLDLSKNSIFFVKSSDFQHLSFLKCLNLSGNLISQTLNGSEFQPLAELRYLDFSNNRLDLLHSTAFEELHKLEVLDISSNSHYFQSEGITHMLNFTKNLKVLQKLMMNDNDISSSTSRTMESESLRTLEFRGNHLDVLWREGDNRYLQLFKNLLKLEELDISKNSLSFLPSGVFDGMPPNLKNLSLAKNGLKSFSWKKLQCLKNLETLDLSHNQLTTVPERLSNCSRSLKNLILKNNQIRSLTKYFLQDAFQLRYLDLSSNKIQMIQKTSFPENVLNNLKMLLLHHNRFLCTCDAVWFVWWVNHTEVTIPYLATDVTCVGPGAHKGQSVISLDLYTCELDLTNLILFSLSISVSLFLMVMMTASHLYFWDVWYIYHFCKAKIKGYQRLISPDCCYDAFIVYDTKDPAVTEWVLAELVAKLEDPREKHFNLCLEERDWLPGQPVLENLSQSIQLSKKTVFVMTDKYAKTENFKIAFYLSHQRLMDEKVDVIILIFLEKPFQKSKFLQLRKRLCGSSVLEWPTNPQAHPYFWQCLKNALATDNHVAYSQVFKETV
Procedure, shortened: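 TLR7/NF-κB reporter HEK293 cells, 5000/well, cultured 24 h, then preincubated 30 min with compound before R848 agonist (10 uM final). After 5 h stimulation, Steady-Glo luciferase luminescence read.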

TLR8 = target: T2, TLR8 (Homo sapiens, UniProt Q9NR97); test: HEK/293 TLR8 Cell Assay; type: cell-based; conditions: HEK cells, R848 agonist 30 uM final concentration, Steady-Glo readout; read-out: TLR8 potency
T2 construct: expressed in transfected cells; host or cells: HEK/293 reporter cells (NF-kB luciferase)
T2 sequence (Q9NR97 27-1041): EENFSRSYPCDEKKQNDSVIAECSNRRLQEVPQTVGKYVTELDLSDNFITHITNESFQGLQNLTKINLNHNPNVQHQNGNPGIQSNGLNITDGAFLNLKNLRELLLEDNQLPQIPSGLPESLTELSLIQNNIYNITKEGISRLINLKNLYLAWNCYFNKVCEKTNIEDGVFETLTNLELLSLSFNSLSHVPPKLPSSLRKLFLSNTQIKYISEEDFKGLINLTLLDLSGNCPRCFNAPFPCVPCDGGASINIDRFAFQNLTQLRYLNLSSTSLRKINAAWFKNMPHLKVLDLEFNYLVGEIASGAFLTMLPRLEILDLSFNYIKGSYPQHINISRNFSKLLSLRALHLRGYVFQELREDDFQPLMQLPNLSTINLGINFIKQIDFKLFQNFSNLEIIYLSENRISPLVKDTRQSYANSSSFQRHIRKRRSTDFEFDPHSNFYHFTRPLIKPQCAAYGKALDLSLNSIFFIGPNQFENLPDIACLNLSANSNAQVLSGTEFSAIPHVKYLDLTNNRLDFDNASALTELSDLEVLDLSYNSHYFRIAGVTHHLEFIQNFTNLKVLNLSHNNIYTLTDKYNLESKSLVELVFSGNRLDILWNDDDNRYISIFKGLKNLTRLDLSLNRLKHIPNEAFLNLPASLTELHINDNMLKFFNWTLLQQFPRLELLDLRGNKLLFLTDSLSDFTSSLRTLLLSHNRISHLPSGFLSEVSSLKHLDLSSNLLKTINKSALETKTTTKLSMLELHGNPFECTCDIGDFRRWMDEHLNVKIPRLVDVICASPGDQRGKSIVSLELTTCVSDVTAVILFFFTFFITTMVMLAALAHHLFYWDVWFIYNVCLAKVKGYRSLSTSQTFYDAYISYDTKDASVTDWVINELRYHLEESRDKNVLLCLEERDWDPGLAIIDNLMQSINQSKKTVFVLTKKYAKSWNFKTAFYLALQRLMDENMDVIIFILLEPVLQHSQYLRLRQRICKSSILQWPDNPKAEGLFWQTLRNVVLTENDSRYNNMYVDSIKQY

| Structure (SMILES) | pIC50 (TLR7) | pIC50 (TLR8) |
| --- | --- | --- |
| N#Cc1ncc(N2C[C@@H](C(=O)NCC3(F)CCNCC3)O[C@@H](C(F)(F)F)C2)c2cccnc12 (single isomer, unassigned) [Example 318] | < 6.82 | < 6.82 |
| C[C@@H]1CN(c2cnc(C#N)c3ncccc23)C[C@H](C(=O)NC[C@H]2CN(C)CCO2)O1 [Example 274, (2R,6R)-4-(8-Cyano-[1,7]naphthyridin-5-yl)-6-methyl-morpholine-2-carboxylic acid ((S)-4-methyl-morpholin-2-ylmethyl)-amide] | > 7.12 | > 7.12 |
| CN1CCC(O)(CC(=O)N[C@@H]2C[C@H](C(F)(F)F)CN(c3ccc(C#N)c4ncccc34)C2)CC1 [Example 73, N-[(3R,5S)-1-(8-cyanoquinolin-5-yl)-5-(trifluoromethyl)piperidin-3-yl]-2-(4-hydroxy-1-methylpiperidin-4-yl)acetamide] | 6.82 to 7.12 | < 6.82 |
| COC[C@H](O)CNC(=O)[C@H]1CN(c2ccc(C#N)c3nccnc23)C[C@@H](C)O1 (single isomer, unassigned) [Example 326] | 6.82 to 7.12 | > 7.12 |
| CN1CCC(F)(CNC(=O)[C@H]2CN(c3ccc(C#N)c4ncccc34)C[C@@H](C(F)(F)F)O2)CC1 (single isomer, unassigned) [Example 353] | > 7.12 | > 7.12 |
| CN1CCC(O)(CC(=O)N[C@@H]2C[C@H](C(F)(F)F)CN(c3ccc(C(F)(F)F)c4ncccc34)C2)CC1 [Example 67, 2-(4-hydroxy-1-methylpiperidin-4-yl)-N-[(3R,5S)-5-(trifluoromethyl)-1-[8-(trifluoromethyl)quinolin-5-yl]piperidin-3-yl]acetamide] | > 7.12 | > 7.12 |
| C[C@@H](O)CNC(=O)[C@@H]1CN(c2ccc(C#N)c3nccnc23)C[C@H](C(F)(F)F)O1 (single isomer, unassigned) [Example 279] | 6.82 to 7.12 | < 6.82 |
| CC(=O)NCCSC[C@H]1CN(c2cnc(C#N)c3ncccc23)C[C@@H](C)O1 [Example 374, N-{2-[(2R,6R)-4-(8-Cyano-[1,7]naphthyridin-5-yl)-6-methyl-morpholin-2-ylmethylsulfanyl]-ethyl}-acetamide] | < 6.82 | 6.82 to 7.12 |
| N#Cc1ccc(N2C[C@H](N)CC(F)(F)C2)c2cccnc12 (single isomer, unassigned) [Example 198] | < 6.82 | < 6.82 |
| C[C@H]1C[C@@H](NC(=O)CCN(C)C)CN(c2ccc(C(F)(F)F)c3ncccc23)C1 [Example 186, 3-Dimethylamino-N-[(3R,5S)-5-methyl-1-(8-trifluoromethyl-quinolin-5-yl)-piperidin-3-yl]-propionamide] | > 7.12 | > 7.12 |
| C[C@@H]1CN(c2cnc(C#N)c3ncccc23)C[C@H](CN2CCNC(=O)C2)O1 [Example 379, 5-[(2R,6S)-2-Methyl-6-(3-oxo-piperazin-1-ylmethyl)-morpholin-4-yl]-naphthyridine-8-carbonitrile] | < 6.82 | < 6.82 |
| N#Cc1ccc(N2C[C@@H](C(=O)NC[C@]3(F)CCNC3)O[C@@H](C(F)(F)F)C2)c2cccnc12 (single isomer, unassigned) [Example 313] | > 7.12 | > 7.12 |
| C[C@@H]1CN(c2ccc(C#N)c3nccnc23)C[C@H](CN2CCC(F)(C(=O)O)CC2)O1 [Example 228, 1-[(2S,6R)-4-(8-Cyano-quinoxalin-5-yl)-6-methyl-morpholin-2-ylmethyl]-4-fluoro-piperidine-4-carboxylic acid] | > 7.12 | > 7.12 |
| C[C@@H]1CN(c2cnc(C#N)c3ncccc23)C[C@H](CNC(=O)[C@@]2(F)CCNC2)O1 (single isomer, unassigned) [Example 336] | > 7.12 | > 7.12 |
| C[C@H]1C[C@@H](NCC2CCC(=O)N2)CN(c2ccc(C(F)(F)F)c3ncccc23)C1 (stereo partly drawn) [Example 48, 5-{[(3R,5S)-5-Methyl-1-(8-trifluoromethyl-quinolin-5-yl)-piperidin-3-ylamino]-methyl}-pyrrolidin-2-one] | > 7.12 | > 7.12 |
| C[C@@H]1CN(c2cnc(C(F)(F)F)c3ncccc23)C[C@H](CNC2CCS(=O)(=O)CC2)O1 [Example 384, (1,1-Dioxo-hexahydro-1lambda6-thiopyran-4-yl)-[(2S,6R)-6-methyl-4-(8-trifluoromethyl-[1,7]naphthyridin-5-yl)-morpholin-2-ylmethyl]-amine] | > 7.12 | < 6.82 |
| Cc1noc([C@H]2CN(c3ccc(C#N)c4nccnc34)C[C@@H](C)O2)n1 (racemic) [Example 213, 8-[(2R,6R)-2-Methyl-6-(3-methyl-[1,2,4]oxadiazol-5-yl)-morpholin-4-yl]-quinoxaline-5-carbonitrile] | < 6.82 | > 7.12 |
| C[C@@H]1CN(c2ccc(C#N)c3nccnc23)C[C@H](C(=O)N2C[C@@H](N)C3(CC3)C2)O1 [Example 288, 8-[(2R,6R)-2-((S)-7-Amino-5-aza-spiro[2.4]heptane-5-carbonyl)-6-methyl-morpholin-4-yl]-quinoxaline-5-carbonitrile] | > 7.12 | > 7.12 |
| COc1ncc(N2C[C@@H](C)C[C@@H](N)C2)c2cccnc12 [Example 151, (3R,5S)-1-(8-Methoxy-[1,7]naphthyridin-5-yl)-5-methyl-piperidin-3-ylamine] | > 7.12 | > 7.12 |
| C[C@H]1C[C@@H](NC(=O)CN2CCN(C)CC2)CN(c2ccc(C#N)c3ncncc23)C1 [Example 89, N-[(3R,5S)-1-(8-cyanoquinazolin-5-yl)-5-methylpiperidin-3-yl]-2-(4-methylpiperazin-1-yl)acetamide] | > 7.12 | < 6.82 |
| C[C@@H]1CN(c2cnc(C(F)(F)F)c3ncccc23)C[C@H](CNC[C@@H]2CN(C)CCO2)O1 (single isomer, unassigned) [Example 386] | < 6.82 | > 7.12 |
| Cc1c(F)cc(N2C[C@H](CN3CCC(N4CCCC4)CC3)O[C@H](C)C2)c2cccnc12 [Example 223, 7-Fluoro-8-methyl-5-[(2R,6S)-2-methyl-6-(4-pyrrolidin-1-yl-piperidin-1-ylmethyl)-morpholin-4-yl]-quinoline] | > 7.12 | > 7.12 |
| COCC(O)CNC(=O)[C@H]1CN(c2ccc(C#N)c3nccnc23)C[C@@H](C)O1 (stereo partly drawn) [Example 252, (2R,6R)-4-(8-Cyano-quinoxalin-5-yl)-6-methyl-morpholine-2-carboxylic acid (2-hydroxy-3-methoxy-propyl)-amide] | 6.82 to 7.12 | > 7.12 |
